Experimental data taken from patent publication US10654819B2, “Processes for the preparation of 2,5-furandicarboxylic acid and intermediates and derivatives thereof” (Stora Enso Oyj, priority 2016, dated 2020).

Legend:
[1] = FDCA solubility characterization in candidate solvents (Example 1); format: physicochemical
Method: Solvents were screened for the ability to dissolve FDCA. 10 ml of a candidate solvent was heated to a certain temperature and FDCA (Product No. F0710, TCI America) was added by small portions to the heated candidate solvent until the FDCA amount exceeded the solubility limit. After that, small volumes of solvent were added until the excess solids were completely dissolved. The experiment was repeated two times at each temperature and the average was taken as FDCA solubility. Five solvents were tested: (1) deionized water; (2) diglyme; (3) dioxane; (4) a 1:1 by volume mixture of diglyme with deionized water; and (5) a 4:1 by volume mixture of dioxane with deionized water. The results are depicted in FIG. 3 as a plot of FDCA Solubility (Weight %) as a function of temperature (° C.). […] However, when each of the organic solvents was combined with water, the resulting co-solvent appeared to provide a synergistic enhancement in FDCA solubilizing capability. […] Similarly, at 100° C., although FDCA solubility in water and dioxane individually was less than 1% (by weight) and less than 2% (by weight), respectively, the FDCA solubility trend line for the co-solvent system of 1:4 ratio of deionized water:dioxane, by volume, indicates 9% (by weight) FDCA solubility.

[2] = FDCA solubility studies in various solvent compositions, visual inspection of dissolution (Example 23); format: physicochemical
Method: A series of samples containing various amounts of FDCA and mixed solvent compositions were prepared in sealed pressure ampules (typically containing 2-5 g material (FDCA and solvent composition)). For example, 200 mg FDCA, 900 mg NMP, and 900 mg de-ionized water were added to an 8 mL glass vial with a stir bar inside, corresponding to a mixture containing 10 wt % FDCA. Other samples corresponding to different wt % FDCA samples in various mixed solvent compositions were prepared in a similar manner. […] The reported FDCA solubility in Table 11 represents the maximum wt % FDCA that can be dissolved in the given solvent composition using this testing method.

O=C(O)c1ccc(C(=O)O)o1 [FDCA, 2,5-furandicarboxylic acid]
FDCA solubility ([1]; in 1:1 deionized water:diglyme by volume, 100° C.): 9 % (by weight) | FDCA solubility ([1]; in 1:4 deionized water:dioxane by volume, 100° C., from trend line): 9 % (by weight) | FDCA solubility ([1]; in diglyme, 22° C. to 100° C.): less than 2 % by weight | FDCA solubility ([1]; in diglyme, 100° C.): less than 2 % (by weight) | FDCA solubility ([1]; in dioxane, 22° C. to 100° C.): less than 2 % by weight | FDCA solubility ([1]; in dioxane, 100° C.): less than 2 % (by weight) | FDCA solubility ([1]; in water, 22° C. to 140° C.): less than 2 % by weight | FDCA solubility ([1]; in water, 100° C.): less than 1 % (by weight) | FDCA solubility ([2]; Bu^tOH 50 wt. % / H2O 50 wt. %, 100 ° C.): 7.0 wt. % | FDCA solubility ([2]; Bu^tOH 75 wt. % / H2O 25 wt. %, 100 ° C.): 7.5 wt. % | FDCA solubility ([2]; MEK 25 wt. % / H2O 75 wt. %, 100 ° C.): 5.5 wt. % | FDCA solubility ([2]; MEK 90 wt. % / H2O 10 wt. %, 100 ° C.): 4.0 wt. % | FDCA solubility ([2]; NMP 20 wt. % / H2O 80 wt. %, 23 ° C.): 0.3 wt. % | FDCA solubility ([2]; NMP 20 wt. % / H2O 80 wt. %, 100 ° C.): 4.0 wt. % | FDCA solubility ([2]; NMP 20 wt. % / H2O 80 wt. %, 120 ° C.): 7.5 wt. % | FDCA solubility ([2]; NMP 35 wt. % / H2O 65 wt. %, 23 ° C.): 0.5 wt. % | FDCA solubility ([2]; NMP 35 wt. % / H2O 65 wt. %, 100 ° C.): 9.0 wt. % | FDCA solubility ([2]; NMP 35 wt. % / H2O 65 wt. %, 120 ° C.): 13.5 wt. % | FDCA solubility ([2]; NMP 50 wt. % / H2O 50 wt. %, 100 ° C.): 14.5 wt. % | FDCA solubility ([2]; NMP 50 wt. % / H2O 50 wt. %, 120 ° C.): 19.5 wt. % | FDCA solubility ([2]; gamma-valerolactone 25 wt. % / H2O 75 wt. %, 100 ° C.): 4.0 wt. % | FDCA solubility ([2]; gamma-valerolactone 50 wt. % / H2O 50 wt. %, 100 ° C.): 7.0 wt. % | FDCA solubility ([2]; gamma-valerolactone 75 wt. % / H2O 25 wt. %, 100 ° C.): 6.5 wt. %
